{"source": "paper PMC7822874", "about": "“Chemoprotective antimalarials identified through quantitative high-throughput screening of Plasmodium blood and liver stage parasites” (Scientific Reports, 2021)", "key": {"[1]": {"test_system": "HepG2", "settings": "human, hepg2 cells, 48 h; call rule not given here"}, "[2]": {"test_system": "Plasmodium falciparum Dd2 asexual blood stage parasites", "assay": "microbe, parasite or virus in culture", "design": "species or system Plasmodium falciparum Dd2 in human erythrocytes; single determination (one 11-point concentration-response curve)", "settings": "Plasmodium falciparum, DD2, Erythrocyte, 72 h; read-out: AC50"}, "[3]": {"test_system": "luciferase-expressing P. berghei liver stage parasites in HepG2 cells", "assay": "Inhibition of liver-stage development assay (ILSDA), Method 2 (WRAIR, 96-well)", "format": "cell-based, Plasmodium berghei", "settings": "for Max Resp (signal direction of the dose response): Method 2, Decrease = decreasing P. berghei viability with dose, Increase = increasing signal, Inactive = no dose response; for AC50: Plasmodium berghei, HepG2, Method 2"}, "[4]": {"test_system": "P. berghei-ANKA-GFP-LucCON liver stage parasites in HepG2-A16-CD81EGFP cells", "assay": "P. berghei liver stage Pb-Luc assay, Method 1 (UCSD, 1536-well)", "format": "cell-based, Plasmodium berghei", "settings": "Plasmodium berghei, 48 h, average of 2 wells on a 1536 well plate; for activity at 1 µM: 1 uM (compounds provided at 10 mM); for activity at 3 µM: 3 uM (compounds provided at 10 mM)"}, "[5]": {"assay": "in vitro", "settings": "human, hepg2 cells"}, "[6]": {"assay": "in vitro", "settings": "human, HepG2-A16-CD81EGFP cells, uninfected"}, "[7]": {"test_system": "P. falciparum Dd2 Cytb V259L", "assay": "SYBR Green ABS proliferation assay, NCGC00473217 selected clone F06", "format": "cell-based, Plasmodium falciparum", "settings": "Plasmodium falciparum", "procedure": "(§1) As resistance selection studies implicated the parasite cytochrome bc1 complex in mediating reduced parasite susceptibility to both NCGC00473217 and NCGC00374598, we leveraged these drug-selected parasites to test for altered drug response to a panel of antimalarial compounds.\n(§2) The P. falciparum parasite Dd2 line was cultured in vitro using standard conditions. […] Tissue culture flasks and assay plates were incubated at 37 °C under a gas mixture of 5% CO2, 5% O2 and 90% N2. […] Significant differences were assessed using two-sided Student’s t-tests. All HTS assays were stopped and read at 72 h. Percent response values represent relative growth as judged by SYBR Green-I fluorescence intensity values normalized to controls.\n(§3) Fresh uninfected RBCs (0.5% hematocrit) were added on day 7 and media was changed every other day. […] Resistant parasites were maintained under drug media at a volume of 50 mL until a high parasitemia (> 5%) was achieved. Aliquots of the bulk resistant cultures were frozen in cryovials before cloning by limiting dilution in 96-well plates (seeded at 0.25 or 0.5 parasites/well)[70]. After 3 weeks of cloning, we screened for positive wells by flow cytometry with SYBR Green-stained cells. […] Parasites were harvested by saponin lysis at the trophozoite stage and genomic DNA was extracted using the QIAamp DNA Blood Midi Kit (Qiagen, Germantown, MD)[71]."}, "[8]": {"test_system": "P. falciparum Dd2 Cytb A122D", "assay": "SYBR Green ABS proliferation assay, NCGC00473217 selected clone F12", "format": "cell-based, Plasmodium falciparum", "settings": "Plasmodium falciparum", "procedure": "as §1, §2, §3"}, "[9]": {"test_system": "P. falciparum Dd2 Cytb G131S", "assay": "SYBR Green ABS proliferation assay, NCGC00374598 selected clone C11", "format": "cell-based, Plasmodium falciparum", "settings": "Plasmodium falciparum", "procedure": "as §1, §2, §3"}, "[10]": {"test_system": "HepG2-A16-CD81EGFP cells"}, "[11]": {"settings": "column 11, read-out: Pb-Luc (P. berghei liver stage), % of control, lower concentration, first repeat"}, "[12]": {"settings": "column 12, read-out: Pb-Luc (P. berghei liver stage), % of control, lower concentration, second repeat"}, "[13]": {"settings": "column 8, read-out: Pb-Luc (P. berghei liver stage), % of control, higher concentration, first repeat"}, "[14]": {"settings": "column 9, read-out: Pb-Luc (P. berghei liver stage), % of control, higher concentration, second repeat"}, "[15]": {"settings": "DD2, cytochrome b mutant line, third value triple, c9, […], read-out: log AC50, mean (converted)"}, "[16]": {"settings": "DD2, cytochrome b mutant line, fourth value triple, c12, […], read-out: log AC50, mean (converted)"}, "[17]": {"settings": "DD2, cytochrome b mutant line, second value triple, c6, […], read-out: log AC50, mean (converted)"}, "[18]": {"settings": "Hill fit, 50% of maximum activity response, read-out: AC50"}, "[19]": {"settings": "log10 of molar AC50 from Hill fit, read-out: Log AC50 (converted)"}}, "note": "Where two headings read alike, the source gives them in different places."}
{"molecule": "Cc1cccc(Nc2nc(NCc3ccco3)c3ccccc3n2)c1", "note": "[MLS000662793-01]", "values": [{"measurement": "Log AC50 (M)", "setting": "[1]", "result": -4.3643, "unit": "M"}, {"measurement": "AC50", "setting": "[2]", "result": 4730, "unit": "nM"}, {"measurement": "Max Resp (signal direction of the dose response)", "setting": "[3]", "result": "Inactive"}, {"measurement": "activity at 1 µM", "setting": "[4]; [11]", "result": 23, "unit": "%"}, {"measurement": "activity at 1 µM", "setting": "[4]; [12]", "result": 19, "unit": "%"}, {"measurement": "activity at 3 µM", "setting": "[4]; [13]", "result": 13, "unit": "%"}, {"measurement": "activity at 3 µM", "setting": "[4]; [14]", "result": 11, "unit": "%"}, {"measurement": "CC50 at 48 h", "setting": "[5]", "result": 43200, "unit": "nM"}, {"measurement": "viability at 48 h, 1 µM", "setting": "[6]", "result": 89, "unit": "%"}, {"measurement": "viability at 48 h, 3 µM", "setting": "[6]", "result": 74, "unit": "%"}]}
{"molecule": "CC(C)CC1=N[S+](=O)([O-])c2cc(NC(=O)c3ccc(F)cc3)ccc2N1", "note": "[NCGC00532402-01]", "values": [{"measurement": "AC50", "setting": "[7]; [15]", "result": "3.99e-07", "unit": "M"}, {"measurement": "AC50", "setting": "[8]; [16]", "result": "1.12e-06", "unit": "M"}]}
{"molecule": "O=C(Nc1ccc2c(c1)[S+](=O)([O-])N=C1CCCN12)c1ccc(F)cc1", "note": "[NCGC00537667-01]", "values": [{"measurement": "AC50", "setting": "[7]; [15]", "result": "1.59e-05", "unit": "M"}, {"measurement": "AC50", "setting": "[9]; [17]", "result": "1.78e-05", "unit": "M"}, {"measurement": "AC50", "setting": "[8]; [16]", "result": "1e-05", "unit": "M"}]}
{"molecule": "CC(C)CC1=N[S+](=O)([O-])c2cc(NC(=O)c3ccc(F)s3)ccc2N1C", "note": "[NCGC00651708-01]", "values": [{"measurement": "AC50", "setting": "[9]; [17]", "result": "2.99e-06", "unit": "M"}, {"measurement": "AC50", "setting": "[8]; [16]", "result": "2.11e-06", "unit": "M"}]}
{"molecule": "O=C1c2ccccc2C2=Nc3ccccc3SC(c3ccc(Cl)cc3)C12", "note": "(stereo not drawn) [MLS000566883-01]", "values": [{"measurement": "Log AC50 (M)", "setting": "[1]", "result": -4.3643, "unit": "M"}, {"measurement": "AC50", "setting": "[2]", "result": 2660, "unit": "nM"}, {"measurement": "Max Resp (signal direction of the dose response)", "setting": "[3]", "result": "Decrease"}, {"measurement": "AC50", "setting": "[3]; [18]", "result": 3980, "unit": "nM"}, {"measurement": "AC50", "setting": "[3]; [19]", "result": 3980, "unit": "nM"}, {"measurement": "CC50 at 48 h", "setting": "[5]", "result": 43200, "unit": "nM"}, {"measurement": "viability at 48 h, 1 µM", "setting": "[6]", "result": 90, "unit": "%"}, {"measurement": "viability at 48 h, 3 µM", "setting": "[6]", "result": 85, "unit": "%"}]}
{"molecule": "CCO.Nc1nc(N)c2cc(Sc3ccc4ccccc4c3)ccc2n1", "note": "[MLS000757047-01]", "values": [{"measurement": "Log AC50 (M)", "setting": "[1]", "result": -4.5643, "unit": "M"}, {"measurement": "AC50", "setting": "[2]", "result": 1330, "unit": "nM"}, {"measurement": "Max Resp (signal direction of the dose response)", "setting": "[3]", "result": "Decrease"}, {"measurement": "AC50", "setting": "[3]; [18]", "result": 2240, "unit": "nM"}, {"measurement": "AC50", "setting": "[3]; [19]", "result": 2240, "unit": "nM"}, {"measurement": "HepG2 viability, % of control, higher concentration, second repeat", "setting": "[10]", "result": 96, "unit": "%"}, {"measurement": "HepG2 viability, % of control, lower concentration, second repeat", "setting": "[10]", "result": 99, "unit": "%"}, {"measurement": "activity at 1 µM", "setting": "[4]; [11]", "result": 12, "unit": "%"}, {"measurement": "activity at 1 µM", "setting": "[4]; [12]", "result": 12, "unit": "%"}, {"measurement": "activity at 3 µM", "setting": "[4]; [13]", "result": 11, "unit": "%"}, {"measurement": "activity at 3 µM", "setting": "[4]; [14]", "result": 10, "unit": "%"}, {"measurement": "CC50 at 48 h", "setting": "[5]", "result": 27300, "unit": "nM"}, {"measurement": "viability at 48 h, 1 µM", "setting": "[6]", "result": 103, "unit": "%"}, {"measurement": "viability at 48 h, 3 µM", "setting": "[6]", "result": 93, "unit": "%"}]}
{"molecule": "CCCN1C(CC(C)C)=N[S+](=O)([O-])c2cc(NC(=O)c3ccc(C(F)(F)F)cc3)ccc21", "note": "[NCGC00531759-01]", "values": [{"measurement": "AC50", "setting": "[7]; DD2, […], averaged from three independent replicates, top concentration 29 µM, read-out: Average AC50 (Log[M]), NCGC00473217 clone F06 (Cytb V259L) (converted)", "result": "8.93e-07", "unit": "M"}, {"measurement": "AC50", "setting": "[9]; DD2, […], averaged from three independent replicates, top concentration 29 µM, read-out: Average AC50 (Log[M]), NCGC00374598 clone C11 (Cytb G131S) (converted)", "result": "2.52e-06", "unit": "M"}, {"measurement": "AC50", "setting": "[8]; DD2, […], averaged from three independent replicates, top concentration 29 µM, read-out: Average AC50 (Log[M]), NCGC00473217 clone F12 (Cytb A122D) (converted)", "result": "8.93e-10", "unit": "M"}]}
